# Experimental data: patent US20230414602A1, “PHARMACEUTICAL COMPOSITION COMPRISING INSOLUBLE CAMPTOTHECIN COMPOUND-CONTAINING NANOPARTICLE FOR TREATMENT OF CANCER AND COMBINATION THERAPY THEREOF” (SNBioScience Inc., priority 2020, published 2023)
# Structures can show the parent of a compound that is named as a salt.
# How the values were obtained:
# [1] = Body weight of MDA-MB-231 xenograft mice (Example 4); assay type: in vivo, BALB/c nu/nu male mice
# Procedure: (§1) Tumor volume and body weight were measured twice a week (intervals of 3 or 4 days) from the time of grouping to the end of the test, and a tumor growth curve was constructed from the start of drug administration to the end of the test.
# A549 = test: Lung cancer A549 xenograft, tumor volume and TGI (Example 4); assay type: in vivo, BALB/c nu/nu male mice; settings: docetaxel 5->10 mg/kg, SNB-101 20 mg/kg (as SN-38), i.v. Q1W x 5
# Procedure: (§2) The thawed cells were cultured for one week or longer, with passages every two or three days. The cells were assayed for viability (trypan blue) and infection with bacteria and yeasts (cell images) and mycoplasma (MycoAlert Mycoplasma detection kit).
# as §1
# (§3) As of the end of the experiment, relative tumor growth inhibition (TGI) to the vehicle was calculated using the following equation.
# Tumor growth inhibition (TGI)(%)={1−(ΔT/ΔC)}×100 Equation 2
# [2] = Body weight of A549 xenograft mice (Example 4); assay type: in vivo, BALB/c nu/nu male mice
# Procedure: as §1
# MDA-MB-231 = test: Breast cancer MDA-MB-231 xenograft, tumor volume and TGI (Example 4); assay type: in vivo, BALB/c nu/nu male mice; settings: docetaxel 5->15 mg/kg, SNB-101 20 mg/kg (as SN-38), i.v. Q1W x 6
# Procedure: as §2, §1, §3
# Tumor growth inhibition (TGI) (%)={1−(ΔT/ΔC)}×100 Equation 2
# [3] = Body weight of AsPC-1 xenograft mice (Example 2); assay type: in vivo, BALB/c nu/nu male mice
# AsPC-1 cells = test: AsPC-1 pancreatic cancer xenograft, tumor volume and tumor weight (Example 2); settings: excised day 22; nab-paclitaxel 5, irinotecan HCl 50, SNB-101 low dose 10/15.9 mg/kg/day
# Description: As a pancreatic cancer cell line for a pancreatic cancer xenograft model, AsPC-1 was used. AsPC-1 cells are aggressive cells and are known to have resistance to gemcitabine.
# [4] = tested on: HT-29 colorectal cancer cells; test: HT-29 colorectal cancer xenograft, tumor volume (Example 5); assay type: in vivo, BALB/c nude mice
# Description: A total of 150 BALB/c nude mice (5-week-old males) were obtained and acclimatized for about one week before transplantation of HT-29 colorectal cancer cells into the subcutaneous area of the right hip. […] after transplantation, 50 mice were selected on the basis of the tumor volume and classified into five groups of 10.
# […] after transplantation of the HT-29 colorectal cancer cells, mice were selected based on the tumor volume and randomly divided into 5 groups (10 mice/group). The drug administration group was set as in Table 13, below.
# An autopsy was performed on day 28. A 5% dextrose solution used as a vehicle for the control was equally administered at a dose of 10 mL/kg.
# Test results are expressed as mean±S.D. in Table 14, below.
molecule,measurement,setting,value
"CC(=O)O[C@@]12CO[C@@H]1C[C@H](O)[C@@]1(C)C(=O)[C@H](O)C3=C(C)[C@@H](OC(=O)[C@H](O)[C@@H](NC(=O)OC(C)(C)C)c4ccccc4)C[C@@](O)([C@@H](OC(=O)c4ccccc4)[C@H]21)C3(C)C [Docetaxel, docetaxel]",Body weight at the start of drug administration (day 0),"[1]; day 0, MDA-MB-231 xenograft mice",19.63 g
same,Body weight at the end of the test (day 35),"[1]; day 35, docetaxel 5->15 mg/kg, SNB-101 20 mg/kg (as SN-38), i.v. Q1W x 6",20.25 g
same,average tumor volume,A549; end of experiment (37 days after drug administration),402.70 mm3
same,TGI (%),"A549; relative to vehicle, end of experiment (day 37)",50.0%
same,Body weight at the start of drug administration (day 0),[2],17.93 g
same,average tumor volume,MDA-MB-231; end of experiment (35 days after drug administration),"1,228.93 mm3"
same,TGI (%),"MDA-MB-231; relative to vehicle, end of experiment (day 35)",27.6%
"CCc1c2c(nc3ccc(OC(=O)N4CCC(N5CCCCC5)CC4)cc13)-c1cc3c(c(=O)n1C2)COC(=O)[C@]3(O)CC [Irinotecan HCl, irinotecan hydrochloride]","Body weight, Day 0","[3]; Day 0, i.v., nab-paclitaxel 5, irinotecan HCl 50, SNB-101 low dose 10/15.9 mg/kg/day (SN-38/irinotecan HCl)",21.3 ± 0.9 g
same,"Body weight, Day 3","[3]; Day 3, i.v., nab-paclitaxel 5, irinotecan HCl 50, SNB-101 low dose 10/15.9 mg/kg/day",22.1 ± 1.1 g
same,"Body weight, Day 7","[3]; Day 7, i.v., nab-paclitaxel 5, irinotecan HCl 50, SNB-101 low dose 10/15.9 mg/kg/day",22.8 ± 1.1 g
same,"Body weight, Day 11","[3]; Day 11, i.v., nab-paclitaxel 5, irinotecan HCl 50, SNB-101 low dose 10/15.9 mg/kg/day",22.9 ± 1.2 g
same,"Body weight, Day 14","[3]; Day 14, i.v., nab-paclitaxel 5, irinotecan HCl 50, SNB-101 low dose 10/15.9 mg/kg/day",23.4 ± 1.2 g
same,"Body weight, Day 17","[3]; Day 17, i.v., nab-paclitaxel 5, irinotecan HCl 50, SNB-101 low dose 10/15.9 mg/kg/day",22.9 ± 1.2 g
same,"Body weight, Day 21","[3]; Day 21, i.v., nab-paclitaxel 5, irinotecan HCl 50, SNB-101 low dose 10/15.9 mg/kg/day",22.6 ± 1.2 g
same,"Body weight, Day 22","[3]; Day 22 (autopsy), i.v., nab-paclitaxel 5, irinotecan HCl 50, SNB-101 low dose 10/15.9 mg/kg/day",21.7 ± 1.3 g
same,weight loss rate compared to G1 (vehicle group),"[3]; day 22, nab-paclitaxel 5, irinotecan HCl 50, SNB-101 low dose 10/15.9 mg/kg/day",10.0%
same,Tumor weight,AsPC-1 cells,0.489 ± 0.101 g
Bevacizumab: monoclonal antibody and target anticancer drug (trade name Avastin),Tumor volume (mm^3) Test start A (day 1),"[4]; day 1, SNB-101 20/31.8 mg/kg venous, bevacizumab 5 mg/kg peritoneal, irinotecan 50 mg/kg venous, days 1, 4, 7",96.67 ± 14.79 mm^3
same,Tumor volume (mm^3) Test end B (day 28),"[4]; day 28, SNB-101 20/31.8 mg/kg venous, bevacizumab 5 mg/kg peritoneal, irinotecan 50 mg/kg venous, days 1, 4, 7",709.38 ± 266.87 mm^3
same,Tumor Volume Change (mm^3) [B − A],"[4]; day 28 minus day 1, SNB-101 20/31.8, bevacizumab 5, irinotecan 50 mg/kg",612.71 ± 259.64 mm^3
